Assay results published in patent US12295970B2, “Imidazoquinoline compounds and prodrugs thereof” (UNIVERSITY OF KANSAS, priority 2019, dated 2025).

How the values were obtained:
human TLR7 (hTLR7) = biological target: T1, human TLR7 (hTLR7) (Homo sapiens, UniProt Q9NYK1); test: In vitro TLR7 activity assay (HEK-Blue hTLR7, QUANTI-Blue, Example 3); type: cell-based; settings: 16 h incubation; Null 1-k subtracted
T1 construct: host or cells: HEK-293 (HEK-Blue hTLR7)
T1 sequence (Q9NYK1 27-1049): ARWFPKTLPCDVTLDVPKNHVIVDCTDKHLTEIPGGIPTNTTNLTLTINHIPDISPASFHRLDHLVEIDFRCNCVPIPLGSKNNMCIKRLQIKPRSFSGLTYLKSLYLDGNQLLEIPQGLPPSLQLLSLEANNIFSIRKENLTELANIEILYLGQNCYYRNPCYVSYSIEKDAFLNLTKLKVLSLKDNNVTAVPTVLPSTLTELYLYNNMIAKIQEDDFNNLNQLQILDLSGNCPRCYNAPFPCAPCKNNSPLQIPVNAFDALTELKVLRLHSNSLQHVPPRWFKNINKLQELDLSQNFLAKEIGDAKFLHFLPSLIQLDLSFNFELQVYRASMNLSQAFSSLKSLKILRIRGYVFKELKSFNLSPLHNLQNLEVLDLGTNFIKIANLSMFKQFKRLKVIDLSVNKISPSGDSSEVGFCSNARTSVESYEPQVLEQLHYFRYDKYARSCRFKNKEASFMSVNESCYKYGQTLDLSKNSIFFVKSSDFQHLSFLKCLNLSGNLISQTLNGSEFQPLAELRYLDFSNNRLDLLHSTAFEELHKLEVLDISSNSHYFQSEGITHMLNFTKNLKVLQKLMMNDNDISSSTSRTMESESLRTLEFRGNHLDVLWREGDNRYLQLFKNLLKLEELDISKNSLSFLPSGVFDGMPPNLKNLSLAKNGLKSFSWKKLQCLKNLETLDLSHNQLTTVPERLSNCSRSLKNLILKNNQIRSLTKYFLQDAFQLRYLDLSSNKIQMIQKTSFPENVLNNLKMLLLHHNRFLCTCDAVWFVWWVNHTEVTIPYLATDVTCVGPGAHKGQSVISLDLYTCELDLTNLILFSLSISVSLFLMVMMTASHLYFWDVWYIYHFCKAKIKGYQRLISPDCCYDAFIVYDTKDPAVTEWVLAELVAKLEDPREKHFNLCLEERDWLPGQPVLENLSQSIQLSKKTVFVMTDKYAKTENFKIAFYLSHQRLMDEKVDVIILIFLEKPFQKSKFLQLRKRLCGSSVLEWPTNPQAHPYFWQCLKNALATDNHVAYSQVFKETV
Protocol: TLR agonist activity was measured in a dose-response study using reporter cell lines expressing the human TLR7 (hTLR7). […] The hTLR7 activity of R848-Toco, the formulation and its components were assessed using HEK-293 cells co-transfected with the hTLR7 gene and an inducible SEAP reporter gene along with the corresponding null control line (HEK-Blue™ hTLR7 and Null-1k cells, Invivogen). Cells were maintained in DMEM media with selective antibiotics according to the manufacturer protocol.^26 HEK-Blue™ cells were seeded into 96 well plates at a density of 220,000 cells/mL with 180 μL/well of culture medium. Stock solutions in DMSO were first serially diluted to seven concentrations (DMSO solutions further diluted into H2O). Each well was stimulated with 20 μL of agonists or agonist-free controls (equivalent concentration of HA-Toco, D-α-Tocopherol succinate, PBS or […] DMSO) at the determined final concentrations in 5 replicates. After 16 h of incubation at 37° C. in a 5% CO2 atmosphere, 20 μL of the supernatant from each well was sampled and spiked into 180 μL of QUANTI-Blue™ solution followed by incubation for 1 h at 37° C. Relative hTLR7 activity was then analyzed by UV-Vis at 637 nm using a microplate UV reader (SpectraMAX GeminiXS, Molecular Devices, San Jose, CA, USA). For each compound and concentration, a corresponding sample was applied to the HEK-Blue™ Null-1k cell line. The TLR7 agonist activity was determined after averaging across hTLR7 replications and subtracting the averaged Null response.
Activation levels were calculated as the difference between the average readings of the hTLR7 cell line and the Null 1-k cell line, to account for non-hTLR7 related induction of NF-κB. […] Therefore, this study confirmed that R848-Toco, formulated with HA-Toco as an emulsion, maintained its TLR agonist activity. […]

hTLR7 = biological target: T2, hTLR7 (Homo sapiens, UniProt Q9NYK1); test: SEAP reporter assay for hTLR-7 activity (HEK-Blue hTLR7 cells); type: cell-based
T2 construct: host or cells: HEK293 (HEK-Blue hTLR7)
T2 sequence (Q9NYK1 27-1049): T1 sequence (Q9NYK1 27-1049)
Protocol: TLR activation induces NF-κB production and subsequent SEAP secretion, which is measured using HEK-Detection media (InvivoGen) containing a colorimetric substrate for SEAP (UV-Vis, 637 nm).
The experiments followed manufacturer protocol as follows: SEAP levels were measured via absorbance at 637 nm using HEK-Blue Detection cell culture medium (InvivoGen), which contains a SEAP-specific colorimetric substrate. Compound stock solutions were first diluted in sterile DMSO at a concentration of 10 mM. Lower concentrations were prepared by serial dilution of the initial 10 mM stock samples into sterile DMSO and these solutions (22 μL) were subsequently diluted into sterile H2O (198 μL) using a BioTek Precision XS pipetting system. HEK-Blue hTLR7, HEK-Blue hTLR8, Null 1−k, and Null 1 cell suspensions in sterile HEK-Blue Detection medium were prepared at a density of 220,000 cells per mL. Clear bottom, 96-well tissue culture treated plates (Corning) were seeded with hTLR7 and Null 1−k or hTLR8 and Null 1 cell suspensions (180 μL/well), after which 20 μL of the various sample concentrations in 10% v/v DMSO/H2O were added (20 μL) in quadruplicate wells to yield the desired testing concentration in 1% v/v DMSO cell suspension. Plates were incubated at 37° C. and 5% CO2 in the dark. Absorbance measurements were taken at 637 nm at 12 hours, 4 replicates per concentration point, per cell line (hTLR7, hTLR8, Null 1−k, Null 1). Three independent measurements on different days were performed for each analog.
Corresponding well absorbance values for each concentration tested were averaged with respect to days tested, and the average relative NF-κB induction (UV-Vis, 637 nm) of the null cell lines (Null 1-k or Null 1) were subtracted from the respective average TLR expressing cell line (hTLR7 or hTLR8) absorbance averages. […] The three independent, normalized averages for each analog were then pooled, and the data was fit using the Hill-Slope model (GraphPad Prism v7.0) using the non-linear fit from the [Agonist] vs. response—Variable Slope (four parameters) with a hill slope constrained to less than 3.

With `CCOCc1nc2c(N)nc3ccccc3c2n1CC(C)(C)O` [Compound 2, resiquimod, reference compound] the “hTLR7 activation (NF-κB, in words)” value (human TLR7 (hTLR7)) was “strong dose-dependent activation” and the “agonist for TLR7 receptor (in words)” value (hTLR7) was “agonists”.
